Values quoted from earlier work, collected in patent US6465497B2, “Arylthiazolidinedione derivatives” (Merck & Co., Inc., priority 1999, dated 2002).

Legend:
ob/ob mice = conditions: Cantello et al, J. Med. Chem. 1994
PPARγ = molecular target: T1, PPARγ (Homo sapiens, UniProt P37231); conditions: subsequent studies; Willson et al, J. Med. Chem. 1996
T1 sequence (P37231 1-505): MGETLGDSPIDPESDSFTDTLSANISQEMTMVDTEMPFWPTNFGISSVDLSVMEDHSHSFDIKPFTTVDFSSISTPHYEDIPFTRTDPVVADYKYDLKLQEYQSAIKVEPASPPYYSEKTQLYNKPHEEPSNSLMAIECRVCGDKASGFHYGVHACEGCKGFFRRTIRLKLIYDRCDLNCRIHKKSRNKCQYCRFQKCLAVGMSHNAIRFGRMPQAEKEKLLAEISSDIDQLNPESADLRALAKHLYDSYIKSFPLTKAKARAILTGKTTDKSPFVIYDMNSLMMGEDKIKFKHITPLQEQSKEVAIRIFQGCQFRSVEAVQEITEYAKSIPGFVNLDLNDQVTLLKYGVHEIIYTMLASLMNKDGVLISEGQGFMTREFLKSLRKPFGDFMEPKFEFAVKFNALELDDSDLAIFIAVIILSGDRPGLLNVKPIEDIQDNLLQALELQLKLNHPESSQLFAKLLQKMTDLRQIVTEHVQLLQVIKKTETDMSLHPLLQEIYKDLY

diabetic mouse model = conditions: Sohda et al, Chem. Pharm. Bull. 1982

amounts required for PPARγ activation (PPARγ)	Structure (SMILES)	antihyperglycemic activity (ob/ob mice)	antihyperglycemic effect (diabetic mouse model)
relatively high amounts	CN(CCOc1ccc(C2SC(=O)NC2=O)cc1)c1nc2ccccc2o1 (stereo not drawn) [(1), 5-[4-[2-(2-benzoxazolylmethylamino)ethoxy]phenyl]-2,4-thiazolidinedione]	no antihyperglycemic activity	–
–	O=C1NC(=O)C(c2ccc(OCCc3ccccc3)cc2)S1 (stereo not drawn) [(2), 5-[4-(phenylethoxy)phenyl]-2,4-thiazolidinedione]	–	no antihyperglycemic effect
